Laboratory results: PubChem BioAssay (NCI)
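48-hour exposure; five concentrations; linearly interpolated endpoints. GI50 marks 50% less growth. TGI denotes the concentration required for complete inhibition of growth.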

Columns and labels:
Experiment in all cases: growth of human tumour cells (NCI), 48 h
[1] = test system: SF-539 CNS
[2] = test system: CAKI-1 renal
[3] = test system: MDA-MB-435
[4] = test system: MDA-MB-231 breast
[5] = test system: HL-60(TB) leukemia
[6] = test system: SR leukemia
[7] = test system: ACHN renal
[8] = test system: SK-MEL-28 melanoma
[9] = test system: T-47D breast
[10] = test system: SF-268 CNS
[11] = test system: IGROV1 ovarian
[12] = test system: NCI-H226 lung
[13] = test system: UO-31 renal
[14] = test system: NCI/ADR-RES ovarian
[15] = test system: UACC-257 melanoma
[16] = test system: SNB-75 CNS
[17] = test system: HOP-92 NSCLC
[18] = test system: HCT-15 colon
[19] = test system: SW-620 colon
[20] = test system: DU-145 prostate
[21] = test system: SK-MEL-5 melanoma
[22] = test system: OVCAR-4 ovarian
[23] = test system: MALME-3M melanoma
[24] = test system: BT-549 breast
[25] = test system: 786-0 renal
[26] = test system: SN12C renal
[27] = test system: UACC-62 melanoma
[28] = test system: CCRF-CEM leukemia
[29] = test system: PC-3 prostate
[30] = test system: OVCAR-5 ovarian
[31] = test system: SF-295 CNS
[32] = test system: RXF 393 renal
[33] = test system: K-562 leukemia
[34] = test system: OVCAR-3 ovarian
[35] = test system: A498 renal
[36] = test system: KM12 colon
[37] = test system: OVCAR-8 ovarian
[38] = test system: SK-OV-3 ovarian
[39] = test system: M14 melanoma
[40] = test system: HOP-62 NSCLC
[41] = test system: HT29 colon
[42] = test system: NCI-H23 lung
[43] = test system: RPMI-8226 leukemia
[44] = test system: LOX IMVI melanoma
[45] = test system: MOLT-4 leukemia
[46] = test system: EKVX NSCLC
[47] = test system: NCI-H460 lung
[48] = test system: MCF7 breast
[49] = test system: SNB-19 CNS
[50] = test system: TK-10 renal
[51] = test system: HS 578T breast
[52] = test system: COLO 205 colon
[53] = test system: SK-MEL-2 melanoma
[54] = test system: A549 NSCLC
[55] = test system: NCI-H522 lung
[56] = test system: HCT-116 colon
[57] = test system: U251 CNS
[58] = test system: HCC-2998 colon

CNC(=O)c1cncc(/C=C/c2ccccc2C)c1
GI50 [1]: > 25 µM | TGI [1]: > 25 µM | GI50 [2]: > 25 µM | TGI [2]: > 25 µM | GI50 [3]: > 25 µM | TGI [3]: > 25 µM | GI50 [4]: > 25 µM | TGI [4]: > 25 µM | GI50 [5]: > 25 µM | TGI [5]: > 25 µM | GI50 [6]: > 25 µM | TGI [6]: > 25 µM | GI50 [7]: > 25 µM | TGI [7]: > 25 µM | GI50 [8]: > 25 µM | TGI [8]: > 25 µM | GI50 [9]: > 25 µM | TGI [9]: > 25 µM | GI50 [10]: > 25 µM | TGI [10]: > 25 µM | GI50 [11]: > 25 µM | TGI [11]: > 25 µM | GI50 [12]: > 25 µM | TGI [12]: > 25 µM | GI50 [13]: > 25 µM | TGI [13]: > 25 µM | GI50 [14]: > 25 µM | TGI [14]: > 25 µM | GI50 [15]: > 25 µM | TGI [15]: > 25 µM | GI50 [16]: > 20.7 µM | TGI [16]: > 25 µM | GI50 [17]: > 25 µM | TGI [17]: > 25 µM | GI50 [18]: > 25 µM | TGI [18]: > 25 µM | GI50 [19]: > 25 µM | TGI [19]: > 25 µM | GI50 [20]: > 25 µM | TGI [20]: > 25 µM | GI50 [21]: > 25 µM | TGI [21]: > 25 µM | GI50 [22]: > 25 µM | TGI [22]: > 25 µM | GI50 [23]: > 25 µM | TGI [23]: > 25 µM | GI50 [24]: > 25 µM | TGI [24]: > 25 µM | GI50 [25]: > 25 µM | TGI [25]: > 25 µM | GI50 [26]: > 25 µM | TGI [26]: > 25 µM | GI50 [27]: > 25 µM | TGI [27]: > 25 µM | GI50 [28]: > 25 µM | TGI [28]: > 25 µM | GI50 [29]: > 25 µM | TGI [29]: > 25 µM | GI50 [30]: > 25 µM | TGI [30]: > 25 µM | GI50 [31]: > 25 µM | TGI [31]: > 25 µM | GI50 [32]: > 25 µM | TGI [32]: > 25 µM | GI50 [33]: > 25 µM | TGI [33]: > 25 µM | GI50 [34]: > 25 µM | TGI [34]: > 25 µM | GI50 [35]: 17.4 µM | TGI [35]: > 25 µM | GI50 [36]: > 25 µM | TGI [36]: > 25 µM | GI50 [37]: > 25 µM | TGI [37]: > 25 µM | GI50 [38]: > 25 µM | TGI [38]: > 25 µM | GI50 [39]: > 25 µM | TGI [39]: > 25 µM | GI50 [40]: > 25 µM | TGI [40]: > 25 µM | GI50 [41]: > 25 µM | TGI [41]: > 25 µM | GI50 [42]: > 25 µM | TGI [42]: > 25 µM | GI50 [43]: > 25 µM | TGI [43]: > 25 µM | GI50 [44]: > 25 µM | TGI [44]: > 25 µM | GI50 [45]: > 25 µM | TGI [45]: > 25 µM | GI50 [46]: > 25 µM | TGI [46]: > 25 µM | GI50 [47]: > 25 µM | TGI [47]: > 25 µM | GI50 [48]: > 25 µM | TGI [48]: > 25 µM | GI50 [49]: > 25 µM | TGI [49]: > 25 µM | GI50 [50]: > 25 µM | TGI [50]: > 25 µM | GI50 [51]: > 25 µM | TGI [51]: > 25 µM | GI50 [52]: > 25 µM | TGI [52]: > 25 µM | GI50 [53]: > 25 µM | TGI [53]: > 25 µM | GI50 [54]: > 25 µM | TGI [54]: > 25 µM | GI50 [55]: > 25 µM | TGI [55]: > 25 µM | GI50 [56]: > 25 µM | TGI [56]: > 25 µM | GI50 [57]: > 25 µM | TGI [57]: > 25 µM | GI50 [58]: > 25 µM | TGI [58]: > 25 µM
